In the NIST ThermoML archive (doi:10.1021/je800110r):

Conditions: Liquid, Vibrating tube method

CCCCCCCCCC [decane]
Conditions	mass density [kg/m3]
323.14 K, 21395 kPa	724.8
323.14 K, 21420 kPa	724.9
323.14 K, 21444 kPa	724.9
323.14 K, 21473 kPa	724.8
323.14 K, 21501 kPa	724.8
323.14 K, 21526 kPa	725
323.14 K, 21647 kPa	725
323.14 K, 22710 kPa	725.7
323.14 K, 22733 kPa	725.8
323.14 K, 22768 kPa	725.8
323.14 K, 22800 kPa	725.9
323.14 K, 22832 kPa	725.9
323.14 K, 22860 kPa	725.9
323.14 K, 22884 kPa	725.9
323.14 K, 22916 kPa	725.8
323.14 K, 22948 kPa	726
323.14 K, 22977 kPa	726.1
323.14 K, 23013 kPa	726
323.14 K, 23034 kPa	726.1
323.14 K, 23071 kPa	726.1
323.14 K, 23103 kPa	726.1
323.14 K, 23124 kPa	726.1
323.14 K, 23149 kPa	726.2
323.14 K, 23170 kPa	726.2
323.14 K, 23191 kPa	726.2
323.14 K, 23219 kPa	726.2
323.14 K, 23256 kPa	726.1
323.14 K, 23294 kPa	726.2
323.14 K, 23332 kPa	726.3
323.14 K, 23357 kPa	726.2
323.14 K, 23391 kPa	726.2
323.14 K, 23412 kPa	726.2
323.14 K, 23442 kPa	726.3
323.14 K, 23475 kPa	726.4
323.14 K, 23509 kPa	726.3
323.14 K, 23539 kPa	726.3
323.14 K, 23578 kPa	726.5
323.14 K, 23612 kPa	726.3
323.14 K, 23710 kPa	726.6
323.14 K, 23736 kPa	726.5
323.14 K, 23762 kPa	726.5
323.14 K, 23806 kPa	726.6
323.14 K, 23832 kPa	726.7
323.14 K, 23854 kPa	726.6
323.14 K, 23881 kPa	726.6
323.14 K, 23912 kPa	726.7
323.14 K, 23938 kPa	726.7
323.14 K, 23970 kPa	726.7
323.14 K, 23996 kPa	726.7
323.14 K, 24633 kPa	727.3
323.14 K, 24707 kPa	727.3
323.14 K, 24732 kPa	727.3
323.14 K, 24765 kPa	727.4
323.14 K, 24799 kPa	727.2
323.14 K, 24832 kPa	727.4
323.14 K, 24861 kPa	727.4
323.14 K, 24899 kPa	727.4
323.14 K, 24942 kPa	727.4
323.14 K, 24979 kPa	727.4
323.14 K, 25000 kPa	727.5
323.14 K, 25022 kPa	727.4
323.14 K, 25061 kPa	727.6
323.14 K, 25103 kPa	727.6
323.14 K, 25129 kPa	727.5
323.14 K, 25160 kPa	727.6
323.14 K, 25190 kPa	727.7
323.14 K, 25216 kPa	727.6
323.14 K, 25251 kPa	727.7
323.14 K, 25291 kPa	727.6
323.14 K, 25325 kPa	727.7
323.14 K, 25361 kPa	727.8
323.14 K, 25383 kPa	727.8
323.14 K, 25422 kPa	727.7
323.14 K, 25458 kPa	727.8
323.14 K, 25493 kPa	727.9
323.14 K, 25521 kPa	727.8
323.14 K, 25556 kPa	727.8
323.14 K, 25593 kPa	727.9
323.14 K, 25624 kPa	727.9
323.14 K, 25670 kPa	727.9
323.14 K, 25706 kPa	728
323.14 K, 25742 kPa	727.9
323.14 K, 25783 kPa	728
323.14 K, 25828 kPa	728
323.14 K, 26192 kPa	728.4
323.14 K, 26343 kPa	728.4
323.14 K, 26723 kPa	728.6
323.14 K, 26758 kPa	728.8
323.14 K, 26793 kPa	728.7
323.14 K, 26842 kPa	728.8
323.14 K, 26872 kPa	728.8
323.14 K, 26912 kPa	728.8
323.14 K, 26952 kPa	728.8
323.14 K, 26992 kPa	728.9
323.14 K, 27043 kPa	729
323.14 K, 27362 kPa	729.1
323.14 K, 27409 kPa	729.2
323.14 K, 27440 kPa	729.2
323.14 K, 27472 kPa	729.2
323.14 K, 27524 kPa	729.4
323.14 K, 27568 kPa	729.3
323.14 K, 27605 kPa	729.3
323.14 K, 27657 kPa	729.4
323.14 K, 27684 kPa	729.3
323.14 K, 27758 kPa	729.5
323.14 K, 27796 kPa	729.5
323.14 K, 27882 kPa	729.5
323.14 K, 27920 kPa	729.5
323.14 K, 27958 kPa	729.5
323.14 K, 27997 kPa	729.6
323.14 K, 28042 kPa	729.7
323.14 K, 28096 kPa	729.7
323.14 K, 28135 kPa	729.7
323.14 K, 28185 kPa	729.7
323.14 K, 28230 kPa	729.8
323.14 K, 28317 kPa	729.9
323.14 K, 28358 kPa	729.8
323.14 K, 28393 kPa	729.7
323.14 K, 28457 kPa	730.1
323.14 K, 28496 kPa	730
323.14 K, 28541 kPa	730
323.14 K, 28571 kPa	730.1
323.14 K, 28605 kPa	730
323.14 K, 28640 kPa	730.1
323.14 K, 28675 kPa	730.1
323.14 K, 28714 kPa	730.1
323.14 K, 28744 kPa	730.2
323.14 K, 28779 kPa	730.1
323.14 K, 28819 kPa	730.2
323.14 K, 28844 kPa	730.2
323.14 K, 28887 kPa	730.3
323.14 K, 28913 kPa	730.3
323.14 K, 28938 kPa	730.2
323.14 K, 28968 kPa	730.3
323.14 K, 28999 kPa	730.4
323.14 K, 29030 kPa	730.4
323.14 K, 29065 kPa	730.4
323.14 K, 29147 kPa	730.4
323.14 K, 29286 kPa	730.6
323.14 K, 29368 kPa	730.6
323.14 K, 29415 kPa	730.5
323.14 K, 29637 kPa	730.8
323.14 K, 29675 kPa	730.8
323.14 K, 29724 kPa	730.9
323.14 K, 29765 kPa	730.8
323.14 K, 29800 kPa	730.9
323.14 K, 29840 kPa	731
323.14 K, 29872 kPa	731
323.14 K, 29908 kPa	730.9
323.14 K, 29935 kPa	731
323.14 K, 29962 kPa	730.9
323.14 K, 29999 kPa	731.1
323.14 K, 30026 kPa	731
323.14 K, 30054 kPa	731.1
323.14 K, 30082 kPa	731.1
323.14 K, 30114 kPa	731.1
323.14 K, 30147 kPa	731.1
323.14 K, 30180 kPa	731.2
323.14 K, 30217 kPa	731.1
323.14 K, 30240 kPa	731.2
323.14 K, 30273 kPa	731.2
323.14 K, 30306 kPa	731.2
323.14 K, 30353 kPa	731.3
323.14 K, 30381 kPa	731.3
323.14 K, 30409 kPa	731.3
323.14 K, 30447 kPa	731.3
323.14 K, 30475 kPa	731.3
323.14 K, 30513 kPa	731.3
323.14 K, 30547 kPa	731.4
323.14 K, 30586 kPa	731.4
323.14 K, 30624 kPa	731.4
323.14 K, 30652 kPa	731.6
323.14 K, 30686 kPa	731.6
323.14 K, 30720 kPa	731.5
323.14 K, 30753 kPa	731.7
323.14 K, 30787 kPa	731.5
323.14 K, 30816 kPa	731.5
323.14 K, 30851 kPa	731.7
323.14 K, 30890 kPa	731.5
323.14 K, 30919 kPa	731.6
323.14 K, 30964 kPa	731.6
323.14 K, 30993 kPa	731.6
323.14 K, 31028 kPa	731.6
323.14 K, 31068 kPa	731.8
323.14 K, 31097 kPa	731.8
323.14 K, 31257 kPa	731.9
323.14 K, 31307 kPa	732
323.14 K, 31343 kPa	731.9
323.14 K, 31374 kPa	732
323.14 K, 31421 kPa	732.1
323.14 K, 31463 kPa	732
323.14 K, 31495 kPa	732.1
323.14 K, 31537 kPa	732.1
323.14 K, 31569 kPa	732
323.14 K, 31606 kPa	732.1
323.14 K, 31636 kPa	732.2
323.14 K, 31661 kPa	732.2
323.14 K, 31690 kPa	732.1
323.14 K, 31715 kPa	732.2
323.14 K, 31736 kPa	732.2
323.14 K, 31774 kPa	732.2
323.14 K, 31812 kPa	732.3
323.14 K, 31838 kPa	732.2
323.14 K, 31872 kPa	732.3
323.14 K, 31911 kPa	732.5
323.14 K, 31949 kPa	732.3
323.14 K, 31979 kPa	732.3
323.14 K, 32017 kPa	732.4
323.14 K, 32056 kPa	732.4
323.14 K, 32082 kPa	732.5
323.14 K, 32116 kPa	732.5
323.14 K, 32143 kPa	732.5
323.14 K, 32175 kPa	732.5
323.14 K, 32205 kPa	732.5
323.14 K, 32236 kPa	732.4
323.14 K, 32266 kPa	732.6
323.14 K, 32305 kPa	732.5
323.14 K, 32332 kPa	732.6
323.14 K, 32363 kPa	732.6
323.14 K, 32403 kPa	732.7
323.14 K, 32438 kPa	732.7
323.14 K, 32465 kPa	732.8
323.14 K, 32522 kPa	732.8
323.14 K, 32717 kPa	732.9
323.14 K, 32817 kPa	733
323.14 K, 32841 kPa	733
323.14 K, 32902 kPa	733
323.14 K, 32934 kPa	733.1
323.14 K, 32966 kPa	732.9
323.14 K, 32994 kPa	733.1
323.14 K, 33023 kPa	733
323.14 K, 33048 kPa	733
323.14 K, 33069 kPa	733.1
323.14 K, 33090 kPa	733.2
323.14 K, 33114 kPa	733.2
323.14 K, 33147 kPa	733.2
323.14 K, 33173 kPa	733.2
323.14 K, 33193 kPa	733.3
323.14 K, 33219 kPa	733.3
323.14 K, 33249 kPa	733.2
323.14 K, 33274 kPa	733.3
323.14 K, 33300 kPa	733.3
323.14 K, 33334 kPa	733.3
323.14 K, 33356 kPa	733.2
323.14 K, 33387 kPa	733.4
323.14 K, 33504 kPa	733.4
323.14 K, 33553 kPa	733.5
323.14 K, 33615 kPa	733.5
323.14 K, 33644 kPa	733.5
323.14 K, 33671 kPa	733.6
323.14 K, 33690 kPa	733.5
323.14 K, 33720 kPa	733.5
323.14 K, 33749 kPa	733.6
323.14 K, 33775 kPa	733.6
323.14 K, 33801 kPa	733.6
323.14 K, 33824 kPa	733.6
323.14 K, 33858 kPa	733.7
323.14 K, 33895 kPa	733.7
323.14 K, 33921 kPa	733.8
323.14 K, 33948 kPa	733.7
323.14 K, 33971 kPa	733.8
323.14 K, 34266 kPa	733.9
323.14 K, 34292 kPa	734
323.14 K, 34329 kPa	733.9
323.14 K, 34363 kPa	733.9
323.15 K, 688 kPa	707.4
323.15 K, 762 kPa	707.5
323.15 K, 781 kPa	707.5
323.15 K, 802 kPa	707.6
323.15 K, 828 kPa	707.5
323.15 K, 851 kPa	707.6
323.15 K, 875 kPa	707.7
323.15 K, 894 kPa	707.6
323.15 K, 924 kPa	707.7
